For 14 compounds, IC50 results are on record in patent US7615569B2, “Inhibitors of ion channels” (Icagen, Inc., priority 2005, dated 2009).

This experiment concerns the target T1, hSCN3A (Homo sapiens, UniProt Q9NY46).
T1 construct: expressed in transfected cells
Kind of experiment: SCN3A inhibitory activity in HEK cells stably expressing hSCN3A (whole-cell patch clamp / radiotracer efflux HTS). It counts as cell-based. The following applies: HEK cells stably transfected with hSCN3A. Background: The patch-clamp technique gives a direct electrical read-out from membranes.

T1 sequence (Q9NY46 whole entry): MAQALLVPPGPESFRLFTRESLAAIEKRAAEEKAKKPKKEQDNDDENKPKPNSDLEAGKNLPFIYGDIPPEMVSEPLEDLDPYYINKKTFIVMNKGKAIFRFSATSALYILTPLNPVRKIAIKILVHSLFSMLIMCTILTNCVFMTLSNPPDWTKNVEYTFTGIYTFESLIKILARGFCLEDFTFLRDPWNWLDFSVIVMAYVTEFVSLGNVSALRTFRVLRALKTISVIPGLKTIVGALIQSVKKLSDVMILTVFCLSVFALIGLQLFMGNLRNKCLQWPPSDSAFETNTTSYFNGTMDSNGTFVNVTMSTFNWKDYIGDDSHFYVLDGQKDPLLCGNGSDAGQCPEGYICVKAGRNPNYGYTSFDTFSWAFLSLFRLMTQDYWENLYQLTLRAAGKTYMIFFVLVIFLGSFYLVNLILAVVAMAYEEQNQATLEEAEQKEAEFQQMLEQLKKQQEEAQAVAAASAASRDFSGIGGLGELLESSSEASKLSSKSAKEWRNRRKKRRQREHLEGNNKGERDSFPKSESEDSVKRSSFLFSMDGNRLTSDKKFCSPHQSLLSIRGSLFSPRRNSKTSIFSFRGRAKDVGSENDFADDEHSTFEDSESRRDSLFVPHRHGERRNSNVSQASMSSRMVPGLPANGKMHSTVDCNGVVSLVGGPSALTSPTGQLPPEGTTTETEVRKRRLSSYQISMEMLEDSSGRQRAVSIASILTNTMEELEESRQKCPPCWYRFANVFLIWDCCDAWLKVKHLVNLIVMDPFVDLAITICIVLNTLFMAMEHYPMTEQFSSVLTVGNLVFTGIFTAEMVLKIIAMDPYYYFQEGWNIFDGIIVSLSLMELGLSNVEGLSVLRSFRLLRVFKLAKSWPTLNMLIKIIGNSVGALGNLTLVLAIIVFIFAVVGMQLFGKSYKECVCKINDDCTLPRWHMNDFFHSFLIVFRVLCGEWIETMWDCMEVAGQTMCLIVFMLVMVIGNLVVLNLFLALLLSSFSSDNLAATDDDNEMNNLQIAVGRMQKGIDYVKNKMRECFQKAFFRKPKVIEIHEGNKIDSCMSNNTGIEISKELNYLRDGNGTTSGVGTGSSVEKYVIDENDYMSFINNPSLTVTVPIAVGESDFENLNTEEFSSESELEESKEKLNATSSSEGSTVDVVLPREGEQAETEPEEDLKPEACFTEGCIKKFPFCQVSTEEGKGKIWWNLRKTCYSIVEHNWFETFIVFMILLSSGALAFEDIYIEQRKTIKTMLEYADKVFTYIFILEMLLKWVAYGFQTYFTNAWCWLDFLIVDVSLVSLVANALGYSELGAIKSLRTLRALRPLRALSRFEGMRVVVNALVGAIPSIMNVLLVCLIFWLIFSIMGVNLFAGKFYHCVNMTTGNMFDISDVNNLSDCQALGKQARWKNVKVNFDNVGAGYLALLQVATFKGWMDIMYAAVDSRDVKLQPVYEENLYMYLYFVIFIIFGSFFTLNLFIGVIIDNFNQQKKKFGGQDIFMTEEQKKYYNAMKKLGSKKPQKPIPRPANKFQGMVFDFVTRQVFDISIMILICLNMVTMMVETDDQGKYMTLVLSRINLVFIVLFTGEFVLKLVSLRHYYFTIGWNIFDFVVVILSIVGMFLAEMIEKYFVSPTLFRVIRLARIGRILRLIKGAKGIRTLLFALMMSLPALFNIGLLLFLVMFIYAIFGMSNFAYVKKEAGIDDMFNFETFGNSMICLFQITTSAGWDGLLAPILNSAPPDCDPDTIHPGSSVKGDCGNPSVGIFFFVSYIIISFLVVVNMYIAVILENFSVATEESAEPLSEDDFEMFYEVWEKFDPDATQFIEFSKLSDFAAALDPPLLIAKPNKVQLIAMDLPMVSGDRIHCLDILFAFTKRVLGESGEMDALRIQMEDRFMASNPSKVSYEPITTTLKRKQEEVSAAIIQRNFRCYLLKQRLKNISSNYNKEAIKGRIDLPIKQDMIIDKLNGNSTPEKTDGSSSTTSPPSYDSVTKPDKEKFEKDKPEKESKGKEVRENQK

Turning to `O=S(=O)(Nc1nccs1)c1ccc(-c2nc(-c3ncc(C(F)(F)F)cc3Cl)n[nH]2)cc1F` [Compound 116, 4-[5-(3-Chloro-5-trifluoromethyl-pyridin-2-yl)-2H-[1,2,4]triazol-3-yl]-2-fluoro-n-thiazol-2-yl-benzenesulfonamide], the IC50 was 100 to 500 nM.

With `COc1ccc(CCc2c[nH]c(-c3ccc(S(=O)(=O)Nc4nccs4)cc3)n2)cc1Cl` [Compound 18, 4-{4-[2-(3-Chloro-4-methoxy-phenyl)-ethyl]-1H-imidazol-2-yl}-N-thiazol-2-yl-benzenesulfonamide], the IC50 lay in the range of 100 to 500 nM.

In turn, `O=S(=O)(Nc1nccs1)c1ccc(-c2nc(C3(c4ccc(Cl)cc4)CCC3)c[nH]2)cc1` [Compound 25, 4-{4-[1-(4-Chloro-phenyl)-cyclobutyl]-1H-imidazol-2-yl}-N-thiazol-2-yl-benzenesulfonamide] registered an IC50 of 100 to 500 nM.

Take `CC1(c2ccc(S(=O)(=O)Nc3nccs3)cc2)NC(=O)N(Cc2ccc(Cl)c(Cl)c2)C1=O` (centres unmarked) [Compound 100, 4-[1-(3,4-Dichloro-benzyl)-4-methyl-2,5-dioxo-imidazolidin-4-yl]-N-thiazol-2-yl-benzenesulfonamide]: the half-maximal inhibitory concentration (IC50) was greater than 1000 nM.

`O=S(=O)(Nc1nccs1)c1ccc(-c2ncc(Cc3ccc(Cl)cc3)[nH]2)cc1` [Compound 8, 4-[5-(4-Chloro-benzyl)-1H-imidazol-2-yl]-N-thiazol-2-yl-benzenesulfonamide] showed an IC50 of 100 to 500 nM.

`CS(=O)(=O)c1ccc(Cc2c[nH]c(-c3ccc(S(=O)(=O)Nc4nccs4)cc3)n2)cc1` [Compound 54, 4-[4-(4-Methanesulfonyl-benzyl)-1H-imidazol-2-yl]-N-thiazol-2-yl-benzenesulfonamide] had a 50% inhibitory concentration (IC50) greater than 1000 nM.

The compound `O=S(=O)(Nc1nccs1)c1ccc(-c2nc(CCc3ccc(C(F)(F)F)cc3)c[nH]2)cc1` [Compound 19, N-Thiazol-2-yl-4-{4-[2-(4-trifluoromethyl-phenyl)-ethyl]-1H-imidazol-2-yl}-benzenesulfonamide] had an IC50 of 100 to 500 nM.

Take `Cc1ccc(C2(c3c[nH]c(-c4ccc(S(=O)(=O)Nc5nccs5)cc4)n3)CCCCC2)cc1` [Compound 21, N-Thiazol-2-yl-4-[4-(1-p-tolyl-cyclohexyl)-1H-imidazol-2-yl]-benzenesulfonamide]: the IC50 lay in the range of 100 to 500 nM.

In turn, `O=S(=O)(Nc1nccs1)c1ccc(-c2nnc(C(c3ccccc3)c3ccccc3)[nH]2)cc1` [Compound 3, 4-(5-Benzhydryl-4H-[1,2,4]triazol-3-yl)-N-thiazol-2-yl-benzenesulfonamide] displayed an IC50 of 100 to 500 nM.

Compound `Cc1nc(-c2ccc(S(=O)(=O)Nc3nccs3)cc2)[nH]c1-c1ccccc1` [Compound 4, 4-(4-Methyl-5-phenyl-1H-imidazol-2-yl)-N-thiazol-2-yl-benzenesulfonamide] had an IC50 of 500 to 1000 nM.

For the compound `O=S(=O)(Nc1nccs1)c1ccc(-c2ncc(Cc3cc(F)cc(F)c3)[nH]2)cc1` [Compound 7, 4-[5-(3,5-Difluoro-benzyl)-1H-imidazol-2-yl]-N-thiazol-2-yl-benzenesulfonamide], the IC50 was 100 to 500 nM.

For the compound `O=S(=O)(Nc1nccs1)c1ccc(-c2ncc(C(c3ccccc3)c3ccccc3)[nH]2)cc1` [Compound 6, 4-(5-Benzhydryl-1H-imidazol-2-yl)-N-thiazol-2-yl-benzenesulfonamide], the IC50 was in the range of 100 to 500 nM.

In turn, `O=S(=O)(Nc1nccs1)c1ccc(-c2nc(Cc3ccc(Cl)c(Cl)c3)c[nH]2)cc1` [Compound 36, 4-[4-(3,4-Dichloro-benzyl)-1H-imidazol-2-yl]-N-thiazol-2-yl-benzenesulfonamide] yielded an IC50 of less than 100 nM.

`O=S(=O)(Nc1nccs1)c1ccc(-c2nc(Cc3ccc(Cl)cc3)n[nH]2)cc1F` [Compound 114, 4-[5-(4-Chloro-benzyl)-2H-[1,2,4]triazol-3-yl]-2-fluoro-n-thiazol-2-yl-benzenesulfonamide]: the IC50 is less than 100 nM.

Usually IC50 stands for the concentration that gives 50% inhibition. Read a low IC50 as higher potency.
